Entries after “also recorded” stand apart in the source; their conditions may differ.
Tests used:
Type in all cases: cell-based, human
HIF-1α protein = HIF-1α protein accumulation, western blot; conditions: foam cells; for Antagonism of adenosine induced HIF-1α protein accumulation: hypoxia, adenosine 100 μM, antagonist 100 nM
Method: Hypoxic exposures were done in a modular incubator chamber and flushed with a gas mixture containing 1% O2, 5% CO2 and balance N2 (MiniGalaxy, RSBiotech, Irvine, Scotland).
U937 cells were induced to differentiate into macrophages by treatment with phorbol myristate acetate (PMA, 40 nM) for 72 h. […] All dialyses were carried out with Pierce Slide-A-Lyzer cassettes (10,000 molecular wheight cut-off).
Whole cell lysates were prepared as described previously (27). […] In experiments aimed to detect HIF, western blot analyses were performed using antibody against HIF-1a (1:250 dilution) and HIF-1β (1:1000 dilution) in 5% non-fat dry milk in PBS/0.1% Tween-20 overnight at 4° C. The protein concentration was determined using BCA protein assay kit (Pierce, Rockford, Ill.). Tubulin (1:250) was used to ensure equal protein loading. Immunoreactivity was assessed and quantified by using a VersaDoc Imaging System (Bio-Rad).

VEGF = VEGF secretion by U937 derived foam cells, ELISA; conditions: 24 h, hypoxia, adenosine 100 μM, antagonist 100 nM
Method: (§1) U937 cells were induced to differentiate into macrophages by treatment with phorbol myristate acetate (PMA, 40 nM) for 72 h. Before use oxLDL was dialyzed against 1 L of 0.15 M sodium chloride and 0.3 mM EDTA (pH 7.4) for 12 h at 4° C., then against RPMI 1640 medium (two changes, 1 L/each change) for 24 h. All dialyses were carried out with Pierce Slide-A-Lyzer cassettes (10,000 molecular wheight cut-off). After dialysis, lipoproteins were sterilized by passing them through a 0.45 μm (pore-size) filter, then added (50-100 μg/mL, Intracel, Frederick, Md.) to PMA-treated U937 cells and incubated in serum-free RPMI 1640 for 48 h.
(§2) The levels of VEGF and IL-8 protein secreted by the cells in the medium were determined by VEGF and IL-8 ELISA kits (R&D Systems) according to the manufacturer's instructions. The data were presented as mean±SD from three independent experiments.

[1] = test system: foam cell formation from PMA-treated U937 cells; assay: Oil red O staining, foam cell formation; conditions: oxLDL 50 μg/mL; for Effect on oxLDL and adenosine induced foam cells formation: adenosine 100 μM
Method: as §1
Treatment of PMA-differentiated U937 cells with test agents was performed 2 h before addition of oxLDL. After exposition to oxLDL under hypoxia for 24 h, U937 cells were fixed in phosphate buffered saline-buffered 4% paraformaldehyde solution for 15 min and then air dried. Oil red O (in 60% isopropanol) staining was done for 15 min essentially as described previously by Kalayoglu and Byrne (Infect. Immun., 66: 5067-5072, 1998). Cells were viewed under a bright-field microscope in 100× fields using a Nikon's Eclipse E800 microscope. Foam cells were defined as macrophages in which cytoplasm was filled with Oil red O-stainable lipid droplets.

IL-8 = IL-8 secretion by U937 derived foam cells, ELISA
Method: as §1, §2

| Compound | Antagonism of adenosine induced HIF-1α protein accumulation (HIF-1α protein) | Reduction of adenosine induced VEGF increase (VEGF) | Effect on oxLDL and adenosine induced foam cells formation ([1]; antagonist 100 nM) | further results |
| --- | --- | --- | --- | --- |
| CCCn1cc2c(nc(NC(=O)Nc3ccc(OC)cc3)n3nc(-c4ccco4)nc23)n1 [MRE-3008F20, 5-[[(4-methoxyphenyl)amino]carbonyl]amino-8-propyl-2-(2-furyl)-pyrazolo[4,3-e]-1,2,4-triazolo[1,5-c]pyrimidine] | partially antagonized | strongly reduced | inhibition of foam cell formation; also recorded: blocked the foam cells formation |  |
| CCNC(=O)[C@H]1O[C@@H](n2cnc3c(Nc4ccc(OCC(=O)Nc5ccccc5)cc4)ncnc32)[C@H](O)[C@@H]1O [1-deoxy-1-[6-{4-[(phenylcarbamoyl)-methoxy]phenylamino}-9H-purin-9-yl]-N-ethyl-β-D-ribofuranuronamide] |  |  |  | Induction of HIF-1α protein by adenosine receptor agonists (HIF-1α protein; CHA 10, 100 nM, CGS 21680 500, 1000 nM, A2B agonist 10, 100 nM, CI-IB-MECA 10, 100 nM): able to induce HIF-1α protein |
| CCCn1c(=O)c2[nH]c(-c3cc(OCC(=O)Nc4ccc5c(c4)OCO5)nn3C)nc2n(CCC)c1=O [MRE-2029F20, N-benzo[1,3]dioxol-5-yl-2-[5-(1,3-dipropyl-2,6-dioxo-2,3,6,7-tetrahydro-1H-purin-8-yl)-1-methyl-1H-pyrazol-3-yl-oxy]-acetamide] | partially antagonized | strongly reduced | blocked the foam cells formation; also recorded: inhibition of foam cell formation | Block of the effect of the adenosine A2B receptor agonist (1 μM) on IL-8 secretion (IL-8): completely blocked; Block of adenosine induced IL-8 increase (IL-8; hypoxia, adenosine 100 μM, antagonist 100 nM): blocked |
| Nc1ncnc2c1ncn2[C@@H]1O[C@H](CO)[C@@H](O)[C@H]1O [adenosine] |  |  |  | Foam cells (Oil red O) on top of oxLDL ([1]; 24 h, 100 μM): increased |
| COc1ccccc1NC(=O)Nc1nc(-c2cccnc2)nc2ccccc12 [VUF 5574] |  |  |  | Effect on oxLDL and adenosine induced foam cells formation ([1]; antagonist 10 nM): blocked the foam cells formation; also recorded: inhibition of foam cell formation |
| Nc1nc2c(cnn2CCc2ccccc2)c2nc(-c3ccco3)nn12 [SCH 58261] | partially antagonized | inhibited to lesser extent |  |  |

Reference: patent US20110190324A1, “METHODS OF TREATING ATHEROSCLEROSIS” (priority 2008, published 2011)
